Measured values taken from the supplement of paper PMC11424490.
Where a name gives a salt, the structure may show the parent alone.

What was measured:
[1] = test system: NCI-H2122; experiment: combination cScore with sotorasib (Bliss gap around IC50) (%PoC); higher = stronger additive effect
How it was run: (§1)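 After 24 h in 384-well plates (500 or 800 cells per well), NCI-H2122, NCI-H358 and SW837 cells received concentration matrices and grew for 72 h, except SW837, which grew for 144 h. CellTiter-Glo readings were scaled to vehicle wells and fitted with four-parameter curves. Each score is the averaged Bliss-independence difference (expected minus measured viability) over a region around both monotherapy IC50s, or at top concentrations when no IC50 was reached.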

[2] = test system: SW837; experiment: as above
How it was run: as §1

SMILES	combination cScore with sotorasib [1]	combination cScore with sotorasib [2]
Cc1ncc(NC(=O)c2cccc(C(F)(F)F)c2)cc1-c1cnc(OC2CCOCC2)c(N2CCOCC2)c1 [RAF-709] + C=CC(=O)N1CCN(c2nc(=O)n(-c3c(C)ccnc3C(C)C)c3nc(-c4c(O)cccc4F)c(F)cc23)[C@@H](C)C1 [sotorasib]	3.48	5.38
CO[C@H]1C[C@@H]2CC[C@@H](C)[C@@](O)(O2)C(=O)C(=O)N2CCCC[C@H]2C(=O)O[C@H]([C@H](C)C[C@@H]2CC[C@@H](O)[C@H](OC)C2)CC(=O)[C@H](C)/C=C(\C)[C@@H](O)[C@@H](OC)C(=O)[C@H](C)C[C@H](C)/C=C/C=C/C=C/1C [Rapamycin] + C=CC(=O)N1CCN(c2nc(=O)n(-c3c(C)ccnc3C(C)C)c3nc(-c4c(O)cccc4F)c(F)cc23)[C@@H](C)C1 [sotorasib]	13.4	10.2
CNC(=O)c1cc(Oc2ccc(NC(=O)Nc3ccc(Cl)c(C(F)(F)F)c3)c(F)c2)ccn1 [Regorafenib] + C=CC(=O)N1CCN(c2nc(=O)n(-c3c(C)ccnc3C(C)C)c3nc(-c4c(O)cccc4F)c(F)cc23)[C@@H](C)C1 [sotorasib]	7.32	-5.66
COc1cc(OC)c(/C=C/S(=O)(=O)Cc2ccc(OC)c(NCC(=O)O)c2)c(OC)c1 [Rigosertib] + C=CC(=O)N1CCN(c2nc(=O)n(-c3c(C)ccnc3C(C)C)c3nc(-c4c(O)cccc4F)c(F)cc23)[C@@H](C)C1 [sotorasib]	2.41	13.3
C/C=C1\NC(=O)[C@H]2CSSCC/C=C/[C@H](CC(=O)N[C@H](C(C)C)C(=O)N2)OC(=O)[C@H](C(C)C)NC1=O [Romidepsin] + C=CC(=O)N1CCN(c2nc(=O)n(-c3c(C)ccnc3C(C)C)c3nc(-c4c(O)cccc4F)c(F)cc23)[C@@H](C)C1 [sotorasib]	5.9	12.7
N#CC[C@H](C1CCCC1)n1cc(-c2ncnc3[nH]ccc23)cn1 [Ruxolitinib] + C=CC(=O)N1CCN(c2nc(=O)n(-c3c(C)ccnc3C(C)C)c3nc(-c4c(O)cccc4F)c(F)cc23)[C@@H](C)C1 [sotorasib]	4.05	6.8
CC(C)(C)c1ccc(S(=O)(=O)NCc2ccc(C(=O)Nc3cccnc3)cc2)cc1 [STF-31] + C=CC(=O)N1CCN(c2nc(=O)n(-c3c(C)ccnc3C(C)C)c3nc(-c4c(O)cccc4F)c(F)cc23)[C@@H](C)C1 [sotorasib]	-10.2	17.6
CNC(=O)c1cc(Oc2ccc(NC(=O)Nc3ccc(Cl)c(C(F)(F)F)c3)cc2)ccn1 [Sorafenib] + C=CC(=O)N1CCN(c2nc(=O)n(-c3c(C)ccnc3C(C)C)c3nc(-c4c(O)cccc4F)c(F)cc23)[C@@H](C)C1 [sotorasib]	4.75	-8.41
CCN(CC)CCNC(=O)c1c(C)[nH]c(/C=C2\C(=O)Nc3ccc(F)cc32)c1C [Sunitinib] + C=CC(=O)N1CCN(c2nc(=O)n(-c3c(C)ccnc3C(C)C)c3nc(-c4c(O)cccc4F)c(F)cc23)[C@@H](C)C1 [sotorasib]	10.9	23
Cn1nnc2c(C(N)=O)ncn2c1=O [Temozolomide] + C=CC(=O)N1CCN(c2nc(=O)n(-c3c(C)ccnc3C(C)C)c3nc(-c4c(O)cccc4F)c(F)cc23)[C@@H](C)C1 [sotorasib]	6.39	-4.91
C[C@@H]1CCN(C(=O)CC#N)C[C@@H]1N(C)c1ncnc2[nH]ccc12 [Tofacitinib citrate] + C=CC(=O)N1CCN(c2nc(=O)n(-c3c(C)ccnc3C(C)C)c3nc(-c4c(O)cccc4F)c(F)cc23)[C@@H](C)C1 [sotorasib]	1.35	2.98
CC(C)C[C@@H](C(=O)N[C@H](C(=O)OC1CCCC1)c1ccccc1)[C@H](O)C(=O)NO [Tosedostat] + C=CC(=O)N1CCN(c2nc(=O)n(-c3c(C)ccnc3C(C)C)c3nc(-c4c(O)cccc4F)c(F)cc23)[C@@H](C)C1 [sotorasib]	10.4	31.5
CC(=O)Nc1cccc(-n2c(=O)n(C3CC3)c(=O)c3c(Nc4ccc(I)cc4F)n(C)c(=O)c(C)c32)c1 [Trametinib] + C=CC(=O)N1CCN(c2nc(=O)n(-c3c(C)ccnc3C(C)C)c3nc(-c4c(O)cccc4F)c(F)cc23)[C@@H](C)C1 [sotorasib]	14.2	14.5
CC1=C(/C=C/C(C)=C/C=C/C(C)=C/C(=O)O)C(C)(C)CCC1 [Tretinoin] + C=CC(=O)N1CCN(c2nc(=O)n(-c3c(C)ccnc3C(C)C)c3nc(-c4c(O)cccc4F)c(F)cc23)[C@@H](C)C1 [sotorasib]	10.5	15.7
COc1cc2c(NC3CCN(C(C)C)CC3)nc(C3CCCCC3)nc2cc1OCCCN1CCCC1 [UNC0638] + C=CC(=O)N1CCN(c2nc(=O)n(-c3c(C)ccnc3C(C)C)c3nc(-c4c(O)cccc4F)c(F)cc23)[C@@H](C)C1 [sotorasib]	-0.46	9.19
CC(C)Nc1cc(-c2c[nH]c(C(=O)N[C@H](CO)c3cccc(Cl)c3)c2)c(Cl)cn1 [Ulixertinib] + C=CC(=O)N1CCN(c2nc(=O)n(-c3c(C)ccnc3C(C)C)c3nc(-c4c(O)cccc4F)c(F)cc23)[C@@H](C)C1 [sotorasib]	-4.67	3.35
CS(=O)(=O)c1ccc(-c2cnc(N)c(C(=O)Nc3ccccc3)n2)cc1 [VE-821] + C=CC(=O)N1CCN(c2nc(=O)n(-c3c(C)ccnc3C(C)C)c3nc(-c4c(O)cccc4F)c(F)cc23)[C@@H](C)C1 [sotorasib]	6.24	6.3
CNCc1ccc(-c2cc(-c3nc(-c4ccc(S(=O)(=O)C(C)C)cc4)cnc3N)on2)cc1 [VE-822/VX-970] + C=CC(=O)N1CCN(c2nc(=O)n(-c3c(C)ccnc3C(C)C)c3nc(-c4c(O)cccc4F)c(F)cc23)[C@@H](C)C1 [sotorasib]	2.89	-0.45
CCCC(CCC)C(=O)O [Valproic acid] + C=CC(=O)N1CCN(c2nc(=O)n(-c3c(C)ccnc3C(C)C)c3nc(-c4c(O)cccc4F)c(F)cc23)[C@@H](C)C1 [sotorasib]	-1.96	-2.1
C[C@]1(c2nc3c(C(N)=O)cccc3[nH]2)CCCN1 [Veliparib] + C=CC(=O)N1CCN(c2nc(=O)n(-c3c(C)ccnc3C(C)C)c3nc(-c4c(O)cccc4F)c(F)cc23)[C@@H](C)C1 [sotorasib]	18.6	7.52
CC[C@]1(O)C[C@@H]2CN(CCc3c([nH]c4ccccc34)[C@@](C(=O)OC)(c3cc4c(cc3OC)N(C)[C@H]3[C@@](O)(C(=O)OC)[C@H](OC(C)=O)[C@]5(CC)C=CCN6CC[C@]43[C@@H]65)C2)C1 [Vinblastine] + C=CC(=O)N1CCN(c2nc(=O)n(-c3c(C)ccnc3C(C)C)c3nc(-c4c(O)cccc4F)c(F)cc23)[C@@H](C)C1 [sotorasib]	6.11	8.44
CCC1=C[C@@H]2CN(C1)Cc1c([nH]c3ccccc13)[C@@](C(=O)OC)(c1cc3c(cc1OC)N(C)[C@H]1[C@@](O)(C(=O)OC)[C@H](OC(C)=O)[C@]4(CC)C=CCN5CC[C@]31[C@@H]54)C2 [Vinorelbine] + C=CC(=O)N1CCN(c2nc(=O)n(-c3c(C)ccnc3C(C)C)c3nc(-c4c(O)cccc4F)c(F)cc23)[C@@H](C)C1 [sotorasib]	1.79	4.13
CS(=O)(=O)c1ccc(C(=O)Nc2ccc(Cl)c(-c3ccccn3)c2)c(Cl)c1 [Vismodegib] + C=CC(=O)N1CCN(c2nc(=O)n(-c3c(C)ccnc3C(C)C)c3nc(-c4c(O)cccc4F)c(F)cc23)[C@@H](C)C1 [sotorasib]	12.1	9.42
O=C(CCCCCCC(=O)Nc1ccccc1)NO [Vorinostat] + C=CC(=O)N1CCN(c2nc(=O)n(-c3c(C)ccnc3C(C)C)c3nc(-c4c(O)cccc4F)c(F)cc23)[C@@H](C)C1 [sotorasib]	8.52	14.9
CN[C@H]1CN(c2ccc3c(=O)c(C(=O)O)cn(-c4nccs4)c3n2)C[C@@H]1OC [Vosaroxin] + C=CC(=O)N1CCN(c2nc(=O)n(-c3c(C)ccnc3C(C)C)c3nc(-c4c(O)cccc4F)c(F)cc23)[C@@H](C)C1 [sotorasib]	13.3	13.2
COc1cc2nccc(Oc3ccc(NC(=O)C4(C(=O)Nc5ccc(F)cc5)CC4)cc3)c2cc1OC [XL-184] + C=CC(=O)N1CCN(c2nc(=O)n(-c3c(C)ccnc3C(C)C)c3nc(-c4c(O)cccc4F)c(F)cc23)[C@@H](C)C1 [sotorasib]	11.7	14
